# Test results from patent US20140309192A1, “MODULATORS OF THE G PROTEIN-COUPLED MAS RECEPTOR AND THE TREATMENT OF DISORDERS RELATED THERETO” (ARENA PHARMACEUTICALS, INC., priority 2011, published 2014).
# Where two headings read alike, the source gives them in different places.
# Assays:
# [1] = system: isolated perfused rat hearts; test: Global ischemia-reperfusion in Langendorff perfused rat hearts (coronary flow, arrhythmias)
# Method: For ischemia-reperfusion experiments, Langendorff perfused rat hearts were equilibrated for 20 min and then baseline coronary flow was recorded for 10 min Thereafter, all hearts were subjected to 30 min of global ischemia by stopping perfusate flow, followed by 30 min of reperfusion with either vehicle (0.01% DMSO), Mas agonist AR234960 (1 μM) or Mas inverse agonist AR244555 (5 μM) added to the perfusion buffer. Electrocardiography was also continuously recorded during the observation period through electrodes attached directly to the surface of the ventricles to detect cardiac arrhythmias during reperfusion.
# rat Mas receptor = target: T1, rat Mas receptor (Rattus norvegicus, UniProt P12526); test: HTRF IP1 assay, HEK293 cells expressing rat Mas receptor; type: cell-based
# T1 construct: expressed in transfected cells; host or cells: HEK293 (ATCC CRL-1573)
# T1 sequence (P12526 1-324): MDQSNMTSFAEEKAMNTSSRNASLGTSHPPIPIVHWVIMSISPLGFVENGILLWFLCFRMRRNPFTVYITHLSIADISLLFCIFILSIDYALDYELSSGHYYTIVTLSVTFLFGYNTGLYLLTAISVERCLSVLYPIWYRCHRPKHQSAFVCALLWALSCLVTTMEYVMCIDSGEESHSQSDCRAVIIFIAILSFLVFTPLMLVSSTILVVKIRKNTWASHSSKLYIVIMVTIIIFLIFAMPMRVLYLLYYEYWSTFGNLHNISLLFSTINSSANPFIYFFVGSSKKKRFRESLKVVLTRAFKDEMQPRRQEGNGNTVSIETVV
# human Mas receptor = target: T2, human Mas receptor (Homo sapiens, UniProt P04201); test: HTRF IP1 assay, HEK293 cells expressing human Mas receptor; type: cell-based
# T2 construct: expressed in transfected cells; host or cells: HEK293 (ATCC CRL-1573)
# T2 sequence (P04201 1-325): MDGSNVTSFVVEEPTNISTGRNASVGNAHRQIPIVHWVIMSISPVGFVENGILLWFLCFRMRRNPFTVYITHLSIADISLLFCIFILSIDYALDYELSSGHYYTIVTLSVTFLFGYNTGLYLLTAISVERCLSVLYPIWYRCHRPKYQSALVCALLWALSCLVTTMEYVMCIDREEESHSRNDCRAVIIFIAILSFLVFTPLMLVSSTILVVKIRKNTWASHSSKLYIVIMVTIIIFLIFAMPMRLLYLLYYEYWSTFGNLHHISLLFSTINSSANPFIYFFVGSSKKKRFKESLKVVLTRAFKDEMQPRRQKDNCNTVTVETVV
# Male Sprague Dawley rats = test: Rat model of transient cerebral ischemia/stroke; type: in vivo; details: 3 mg/kg bolus i.v. 1 min prior to MCA occlusion or at the onset of reperfusion
# Method: Rats were anesthetized with pentobarbital (70 mg/kg). Normal body temperature was maintained by placing the animals on heating pads. A midline neck incision was made and soft tissues were pulled apart, and the external carotid artery (ECA), and internal carotid artery (ICA) were exposed. […] An incision was made around the left hind leg area and exposing the femoral vein. A 30-mm length of 3-0 monofilament nylon suture coated with 0.1% poly-lysine was inserted into the right ICA lumen through a small incision at about 4-mm proximal to the carotid bifurcation. The filament was advanced 18-22 mm from the start of the carotid bifurcation to block the origin of the right middle cerebral artery (MCA) for the ischemia time designed. Reperfusion was obtained by pulling out the occluding filament at the end of the MCA. After occlusion the tissues around the neck were closed with 4-0 silk suture (Ethicon, 1677G). The skin around the neck was closed with metal clips and the cutting area was treated with iodine. At the end of the reperfusion period (e.g. 24 h) the rats were anesthetized with Nembutal (70 mg/kg) and the brains were removed. […] Whole area (WA) and infarct area (IA) were measured for each coronal section. Brain damage was assessed by IA/(IA+WA). […]
Structure (SMILES),"frequency of prolonged ventricular arrhythmias during reperfusion ([1]; 1 μM, three out of seven hearts)","coronary flow during reperfusion compared to vehicle treated hearts ([1]; 30 min global ischemia, 30 min reperfusion, AR234960 1 μM, AR244555 5 μM in perfusate during reperfusion)","IC50 (rat Mas receptor; IP assay, HEK293 cells stably expressing rat Mas, 4 h, means ± SEM, read-out: Rat IC50)","ligand activity in IP assay, rat Mas (rat Mas receptor; Table C, line under Rat IC50)","IC50 (human Mas receptor; IP assay, HEK293 cells stably expressing human Mas, 4 h, means ± SEM, read-out: Human IC50)","ligand activity in IP assay, human Mas (human Mas receptor; Table C, line under Human IC50)","IC50 (rat Mas receptor; HTRF IP1 assay, rat Mas receptor (Table B.1), read-out: IC50)",brain damage associated with transient ischemic injury (Male Sprague Dawley rats),"IC50 (human Mas receptor; HTRF IP1 assay, human Mas receptor (Table B.2), read-out: IC50)"
COc1cc([N+](=O)[O-])ccc1S(=O)(=O)N1CC(CN2CCN(c3ccccn3)CC2)C(c2cccc(F)c2)C1 (stereo not drawn) [AR234960],42.9%,trend toward decreased coronary flow,172 ± 9 nM,(agonist),351 ± 55 nM,(agonist),,,
"NC(=O)[C@H](CO)NCc1ccc(C(=O)Nc2ccc(Cl)cc2N2CCN(CCC(F)(F)F)CC2)c(F)c1F [Compound 170, (S)-4-((1-Amino-3-hydroxy-1-oxopropan-2-ylamino)methyl)-N-(4-chloro-2-(4-(3,3,3-trifluoropropyl)piperazin-1-yl)phenyl)-2,3-difluorobenzamide]",,,,,,,21.4 nM,reduced brain damage,15.6 nM
